The record followed here is patent US20080207928A1 (priority 2005, published 2008).

pEC50: −log10 of the molar value. Like-named read-outs stand apart in the source and are kept apart here. Where only a bound is given, the exact number is not on record here.

Assay [1] has as its target T1, human recombinant CB1 (Homo sapiens, UniProt P21554).
T1 construct: purchased Perkin-Elmer; host or cells: HEK293
In words: CB1R radioligand binding, membranes from HEK293 cells over-expressing human recombinant CB1. As to the method: (§1) Flavonoid compounds of general formula (I) above were evaluated for their ability to activate Cannabinoid Receptor 1 (CBLR) and Cannabinoid Receptor 2 (CB2R).
CB1R experiments were performed using membranes from HEK293 cells over-expressing human recombinant CB1, as described by the manufacturer (Perkin-Elmer) and using [3H]CP-55,490 as the radioligand.
(§2) Data of active compounds are expressed in Ki (mM) and are means±SEM of n=3 determinations.
(§3) The values that are stated for each of the compounds is an EC50 value. This is defined as the molar concentration of an agonist, which produces 50% of the maximum possible response for that agonist. The values documented are in micromolar units.

Assay [2] addresses T2, human recombinant CB2 (Homo sapiens, UniProt P34972).
T2 construct: purchased Perkin-Elmer; host or cells: HEK293
Briefly: CB2R radioligand binding, membranes from HEK293 cells over-expressing human recombinant CB2. The procedure:
as §1
CB2R experiments were performed using membranes from HEK293 cells over-expressing human recombinant CB2, as described by the manufacturer (Perkin-Elmer), and using [3H]CP-55,495 as the radioligand.
as §2, §3

T2 sequence (P34972 whole entry): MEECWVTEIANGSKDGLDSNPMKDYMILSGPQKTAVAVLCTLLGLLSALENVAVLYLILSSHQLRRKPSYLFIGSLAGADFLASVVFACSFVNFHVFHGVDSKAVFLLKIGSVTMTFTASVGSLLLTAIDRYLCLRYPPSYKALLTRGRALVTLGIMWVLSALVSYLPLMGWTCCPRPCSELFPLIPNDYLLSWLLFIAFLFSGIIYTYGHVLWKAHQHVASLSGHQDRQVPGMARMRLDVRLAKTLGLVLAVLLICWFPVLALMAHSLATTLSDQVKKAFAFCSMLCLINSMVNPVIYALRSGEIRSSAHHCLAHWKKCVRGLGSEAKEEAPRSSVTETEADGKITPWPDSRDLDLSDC
T1 sequence (P21554 whole entry): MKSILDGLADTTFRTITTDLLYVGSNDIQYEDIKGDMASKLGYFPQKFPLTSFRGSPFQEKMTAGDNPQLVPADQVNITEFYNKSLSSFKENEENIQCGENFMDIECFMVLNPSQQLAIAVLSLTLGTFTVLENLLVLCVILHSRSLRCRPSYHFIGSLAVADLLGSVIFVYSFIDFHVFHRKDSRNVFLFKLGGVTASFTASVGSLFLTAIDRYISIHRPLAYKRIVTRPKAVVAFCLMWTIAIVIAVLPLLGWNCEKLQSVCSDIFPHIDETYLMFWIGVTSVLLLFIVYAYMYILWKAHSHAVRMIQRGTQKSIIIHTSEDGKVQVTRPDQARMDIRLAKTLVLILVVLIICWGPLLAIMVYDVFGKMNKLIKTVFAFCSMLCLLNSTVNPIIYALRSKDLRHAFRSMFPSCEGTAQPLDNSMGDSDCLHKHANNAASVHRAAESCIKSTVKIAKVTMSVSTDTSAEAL

As for `COc1cc(O)c(CC=C(C)C)c2c1C(=O)C[C@@H](c1ccc(O)cc1)O2` [Example 1, 4′, 7-dihydroxy-5-methoxy-8-prenylflavanone], the pEC50 was 5.12 in assay [1] and under 4.60 in assay [2].

Consider `CC(C)=CCc1c(O)cc(O)c2c1O[C@H](c1ccc(O)cc1)CC2=O` [Example 2, 4′,5,7-trihydroxy-8-prenylflavanone], for which the values for the pEC50 in assay [1] and in assay [2] were 5.34 and under 4.60, respectively.

Turning to `O=C1C[C@@H](c2ccccc2)Oc2cc(O)cc(O)c21` [Example 3, 5,7-dihydroxyflavanone], the pEC50 in assay [1] (HEK293 membranes, [3H]CP-55,490 radioligand, means of n=3, read-out: CB1R Activity) was under 4.60; in assay [2] (HEK293 membranes, [3H]CP-55,495 radioligand, means of n=3, read-out: CB2R Activity), 4.81.

Take `COc1cc(O)c2c(c1)O[C@H](c1ccccc1)CC2=O` [Example 4, 5-hydroxy-7-methoxyflavanone]: in assay [1], the pEC50 was 6.10 and the “activation of Cannabinoid Receptor 1 (statement in words)” value is “can activate both”. Besides, in assay [2], the pEC50 is 5.04 and the “activation of Cannabinoid Receptor 2 (statement in words)” value was “can activate both”.

Consider `COc1cc(O)c2c(c1)O[C@H](c1ccc(O)cc1)CC2=O` [Example 5, 5,4′-dihydroxy-7-methoxyflavanone], for which the pEC50 in assay [1] was 5.42; in assay [2], under 4.60.
